Consider 17 compounds from ChEMBL document CHEMBL4422617, “Recent advances in the discovery of small molecules targeting glioblastoma” (Eur J Med Chem, 2019).

In brackets after ≈: the same amount, converted by molar mass.

The nature of data set [1]: Cytotoxicity against human GBM6 cells after 72 hrs by MTS assay. It is filed as functional. The conditions noted are these: GBM6, 72 h, read-out: ED50 (the source's name).
Data set [2] in a line: Cytotoxicity against patient derived GSC after 96 hrs by CellTiter-Glo assay. It is filed as functional, Homo sapiens.
The subject of data set [3] is SF-295. Briefly: Antiproliferative activity against human SF295 cells after 72 hrs by MTT assay. The class given is functional, cell-based. To be noted: SF-295, 72 h. On the technique in general: Tetrazolium dyes change colour on reduction, which living cells bring about.
For data set [4], the system named is U-251. Briefly: Antiproliferative activity against human U251 cells by MTT assay. The class given is functional, cell-based.
Data set [5] has as its system U-87 MG. Description: Antiproliferative activity against human U87 cells assessed as reduction in cell viability after 72 hrs by AlamarBlue assay. It is filed as functional, cell-based, U-87MG ATCC.
Data set [6] relates to U-87 MG. Description: Antiproliferative activity against human U87 cells over-expressing EGFRvIII assessed as reduction in cell viability after 72 hrs by AlamarBlue assay. The class given is functional, cell-based, U-87MG ATCC.
Data set [7] deals with U-251. Description: Antiproliferative activity against human U251 cells assessed as reduction in cell viability after 72 hrs by AlamarBlue assay. It is filed as functional, cell-based. To be noted: U-251, 72 h.
The test system of data set [8] is U-251. Description: Antiproliferative activity against human U251 cells after 24 hrs by MTT assay. The class given is functional, cell-based. The conditions noted are these: U-251, 24 h.
For a further data set, the target named is Histone deacetylase. Description: Inhibition of mouse liver HDAC using Boc-Lys (Ac)-AMC as substrate preincubated for 5 mins followed by substrate addition and measured after 30 mins by fluorescence assay.
For data set [9], the system named is U-251. Description: Antiproliferative activity against human U251 cells after 24 hrs by SRB assay. It is filed as functional, cell-based. To be noted: U-251, 24 h. Background: The SRB assay estimates cell density from bound dye.
Data set [10] deals with U-251. Briefly: Antiproliferative activity against human U251 cells after 72 hrs by WST-1 assay. It is filed as functional, cell-based. The conditions noted are these: U-251, 72 h.
The next data set deals with A 172. Briefly: Antiproliferative activity against human A172 cells after 72 hrs by WST-1 assay. The conditions noted are these: A 172, 72 h. It is filed as functional, cell-based.
The subject of data set [11] is U-87 MG. Briefly: Antiproliferative activity against human U87 cells after 72 hrs by WST-1 assay. It is filed as functional, cell-based, U-87MG ATCC.
Data set [12] can be described thus: Antiproliferative activity against human BT74 cells after 72 hrs by WST-1 assay. It is filed as functional, cell-based.
Data set [13] can be described thus: Antiproliferative activity against human MGG4 cells after 72 hrs by WST-1 assay. It is filed as functional, cell-based.
Data set [14] can be described thus: Antiproliferative activity against human MGG8 cells after 72 hrs by WST-1 assay. The class given is functional, cell-based.
Data set [15] deals with SF-295. Briefly: Cytotoxicity against human SF295 cells after 72 hrs by MTT assay. It is filed as functional, cell-based. To be noted: SF-295, 72 h.
The next data set has as its system PBMC. Description: Cytotoxicity against human PBMC after 72 hrs by MTT assay. It is filed as cell-based.
The nature of data set [16]: Antiproliferative activity against human U3046MG cells by CellTiter-Glo assay. It is filed as functional, cell-based.
Data set [17] is described as follows: Antiproliferative activity against human U3005MG cells by CellTiter-Glo assay. The class given is functional, cell-based. A general note: Cellular ATP, detected with luciferase, serves as a proxy for viable cell number.
Data set [18] deals with U-251. Description: Antiproliferative activity against human U251 cells after 5 days by CyQuantGR dye-based fluorescence assay. The class given is functional, cell-based. To be noted: U-251, 120 h.
Data set [19] has as its system U-87 MG. Briefly: Antiproliferative activity against human U87MG cells after 5 days by CyQuantGR dye-based fluorescence assay. The class given is functional, cell-based, U-87MG ATCC. The conditions noted are these: 120 h.
For data set [20], the system named is T98G. Briefly: Antiproliferative activity against human T98G cells after 5 days by CyQuantGR dye-based fluorescence assay. It is filed as functional, cell-based. The conditions noted are these: 120 h.
Another data set concerns U-118-MG. Description: Antiproliferative activity against human U118MG cells after 5 days by CyQuantGR dye-based fluorescence assay. It is filed as functional, cell-based. To be noted: 120 h.
Data set [21] can be described thus: Tmax in […] mouse at 25 micromol/kg, ip administered as single dose by mass spectrometric analysis. The class given is ADME, organism-based. The conditions noted are these: in vivo, 25 µmol/kg.
Data set [22] in a line: Half life in […] mouse at 25 micromol/kg, ip administered as single dose by mass spectrometric analysis. The conditions noted are these: in vivo, 25 µmol/kg. It is filed as ADME, organism-based.
Data set [23] can be described thus: Cmax in […] mouse at 25 micromol/kg, ip administered as single dose by mass spectrometric analysis. It is filed as ADME, organism-based. The arrangement: route intraperitoneal. The conditions noted are these: in vivo, 25 µmol/kg.
In another data set the test system is LN-229. Description: Antiproliferative activity against human LN229 cells after 5 days by AlamarBlue assay. It is filed as functional, cell-based. To be noted: LN-229, 120 h.
In data set [24] the test system is T98G. Description: Antiproliferative activity against human T98G cells after 5 days by AlamarBlue assay. The class given is functional, cell-based. To be noted: 120 h.
Data set [25] concerns U-87 MG. Briefly: Antiproliferative activity against human U87 cells after 5 days by AlamarBlue assay. The class given is functional, cell-based, U-87MG ATCC. To be noted: 120 h.
Another data set has as its system U138-MG. Briefly: Antiproliferative activity against human U138MG cells after 5 days by AlamarBlue assay. It is filed as functional, cell-based. To be noted: 120 h.
Data set [26] in a line: Antiproliferative activity against human U373 cells after 5 days by AlamarBlue assay. It is filed as functional, cell-based, U-373MG ATCC. To be noted: U373 MG, 120 h.
In the next data set the test system is C6. Briefly: Antiproliferative activity against rat C6 cells at 50 uM after 24 hrs by MTT assay relative to control. The class given is functional.
In data set [27] the test system is U-87 MG. Briefly: Antiproliferative activity against human U87MG cells after 96 hrs. It is filed as functional, U-87MG ATCC.
The test system of data set [28] is U-87 MG. Briefly: Antitumor activity against human U87MG cells xenografted in nude-Fox1nu mouse assessed as tumor growth inhibition at 150 mg/kg bid relative to control. It is filed as functional, U-87MG ATCC. To be noted: read-out: TGI.
The test system of the next data set is SNB-19. Briefly: Antiproliferative activity against human SNB19 cells after 72 hrs by WST-1 assay. It is filed as functional, cell-based. The conditions noted are these: SNB-19, 72 h.
Data set [29] can be described thus: Antiproliferative activity against human D456 cells after 7 days […] by CellTiter Glo assay. The class given is functional, cell-based. To be noted: 168 h.

Turning to `CN1CCN(C(=O)c2ccc3c(NC4CCN(Cc5ccccc5)CC4)c4ccccc4nc3c2)CC1`, the EC50 in data set [1] amounted to 4.1 µM.
For orientation: IC50 means the concentration at which inhibition is half-maximal. A lower IC50 goes with greater potency in that assay. `CCN(CC)C(=S)SSC(=S)N(CC)CC` showed an IC50 in data set [2] of 0.0311 µM. This counts as double-digit nanomolar.
For `CC1(C)OC2=C(C(=O)C(=O)c3ccccc32)[C@H](n2cc(C[Se]c3ccc(F)cc3)nn2)[C@H]1Br`, half-maximal inhibition with SF-295 [3] (IC50) was put at 1.48 µM.
In turn, `O[C@@H](c1cc(C(F)(F)F)nc2c(C(F)(F)F)cccc12)[C@H]1CCCCN1` [(S,R)-MEFLOQUINE] yielded an IC50 with U-251 [4] of 10 µM. In other words, the double-digit micromolar range.
Consider `O=C(CCCc1ccc(-c2cccnc2F)cc1)Nc1ccc(O)cc1`, for which the EC50 in the data set on U-87 MG [5] was 1.4 µM; in the data set with U-87 MG [6] it was 1.7 µM; with U-251 [7] it was 1.6 µM.
`Cc1ccc(-c2nnc(SCC(=O)N3N=C(c4cccs4)CC3c3ccc(Cl)cc3)o2)cc1` (centres undefined) yielded an IC50 in the data set with U-251 [8] of 11.9 µM.
As to `O=C(CCCCCn1cc(C(=O)Nc2nc3ccccc3s2)c(=O)c2ccccc21)NO`, the IC50 at Histone deacetylase amounted to 0.0015 µM; in the data set on U-251 [9] it was 0.7 µM.
Take `CCn1c(C)c(C(=O)c2ccc(C)c3ccccc23)c2ccccc21`: the EC50 (in the data set with U-251 [10]; in the data set with A 172; in the data set with U-87 MG [11]; in [12]; in data set [13]; in [14]) was 2400 to 8600 µM throughout.
`O=C(O)CNC1=CC(=O)c2ccccc2C1=O`: the IC50 in the data set with SF-295 [15] was 2.4 µM; in the data set on PBMC it was 23.8 µM.
On to `COc1ccc2c(c1)c(=O)c(C(=O)Nc1nc3ccccc3s1)cn2CCCCCC(=O)NO`, for which the figures for the IC50 on Histone deacetylase and in the data set with U-251 [9] were 0.028 µM and 0.8 µM, respectively.
On to `CN1CCN(CCCN2c3ccccc3Sc3ccc(C(F)(F)F)cc32)CC1` [TRIFLUOPERAZINE], for which the EC50 came to 1.34 µM in [16] and 1.85 µM in data set [17].
By Tmax is commonly meant the time from dosing to the highest level. One may read the half-life as the time in which the quantity being followed falls by half. Lower therefore signals fast loss. What is called Cmax is the maximum level reached in the sampled fluid or tissue. Consider `Cc1ccc(N(CCn2nnc3c(C(N)=O)ncn3c2=O)CCn2nnc3c(C(N)=O)ncn3c2=O)cc1`, for which the IC50 in the data set on U-251 [18] amounted to 5.2 µM; in the data set with U-87 MG [19] it was 14 µM; in the data set on T98G [20] it was 11.3 µM; in the data set with U-118-MG, 10 µM. The Tmax in data set [21] was 10 min. Besides, the half-life in data set [22] amounted to 14 min. For the same compound, the concentration in data set [23] peaked (Cmax) at 260 nM.
`O=C(Nc1ccc([N+](=O)[O-])cc1Cl)c1cc(Cl)ccc1O` [NICLOSAMIDE]: the IC50 (in the data set on LN-229; with T98G [24]; with U-87 MG [25]; in the data set on U138-MG; in [26]) was 0.3 to 1.2 µM throughout.
In the data set on C6, `Brc1c(Br)c(Br)c2[nH]cnc2c1Br` returned an Activity of 50%.
For orientation: GI50 means the concentration giving 50% growth inhibition. Higher therefore signals lower sensitivity of the cells. `CS(=O)(=O)N1CCN(Cc2cc3nc(-c4cccc5[nH]ncc45)nc(N4CCOCC4)c3s2)CC1` [PICTILISIB] returned a concentration for 50% growth inhibition (GI50) in the data set on U-87 MG [27] of 0.07 µM. Besides, the inhibition in vivo at 150 mg/kg in the data set on U-87 MG [28] stood at 98%.
For `C#CCSc1nc(Cl)nc2nc(SCC#C)n(C)c12`, in the data set with SNB-19, the half-maximal inhibitory concentration (IC50) stood at 0.07 µg/mL (≈ 0.227 µM).
In data set [29], `O=C1CC(c2ccc(-c3cc[nH]n3)s2)c2cc(N3CCNC3=O)ccc2N1` (centres undefined) displayed a half-inhibitory concentration (IC50) of 1.69 µM.
